Laboratory results reported in ChEMBL document CHEMBL3526024, “Oral availability of cefadroxil depends on ABCC3 and ABCC4” (Drug Metab Dispos, 2012).

Key:
[1] = target: T1, ATP-binding cassette sub-family C member 4 (Homo sapiens, UniProt O15439); assay: Inhibition of recombinant human ABCC4 expressed in baculovirus infected insect Sf21 cell plasma membrane vesicles assessed as inhibition of transporter-mediated [3H]-estradiol-17beta-glucuronide uptake by liquid scintillation counting analysis; assay type: ADME
T1 sequence (O15439 whole entry): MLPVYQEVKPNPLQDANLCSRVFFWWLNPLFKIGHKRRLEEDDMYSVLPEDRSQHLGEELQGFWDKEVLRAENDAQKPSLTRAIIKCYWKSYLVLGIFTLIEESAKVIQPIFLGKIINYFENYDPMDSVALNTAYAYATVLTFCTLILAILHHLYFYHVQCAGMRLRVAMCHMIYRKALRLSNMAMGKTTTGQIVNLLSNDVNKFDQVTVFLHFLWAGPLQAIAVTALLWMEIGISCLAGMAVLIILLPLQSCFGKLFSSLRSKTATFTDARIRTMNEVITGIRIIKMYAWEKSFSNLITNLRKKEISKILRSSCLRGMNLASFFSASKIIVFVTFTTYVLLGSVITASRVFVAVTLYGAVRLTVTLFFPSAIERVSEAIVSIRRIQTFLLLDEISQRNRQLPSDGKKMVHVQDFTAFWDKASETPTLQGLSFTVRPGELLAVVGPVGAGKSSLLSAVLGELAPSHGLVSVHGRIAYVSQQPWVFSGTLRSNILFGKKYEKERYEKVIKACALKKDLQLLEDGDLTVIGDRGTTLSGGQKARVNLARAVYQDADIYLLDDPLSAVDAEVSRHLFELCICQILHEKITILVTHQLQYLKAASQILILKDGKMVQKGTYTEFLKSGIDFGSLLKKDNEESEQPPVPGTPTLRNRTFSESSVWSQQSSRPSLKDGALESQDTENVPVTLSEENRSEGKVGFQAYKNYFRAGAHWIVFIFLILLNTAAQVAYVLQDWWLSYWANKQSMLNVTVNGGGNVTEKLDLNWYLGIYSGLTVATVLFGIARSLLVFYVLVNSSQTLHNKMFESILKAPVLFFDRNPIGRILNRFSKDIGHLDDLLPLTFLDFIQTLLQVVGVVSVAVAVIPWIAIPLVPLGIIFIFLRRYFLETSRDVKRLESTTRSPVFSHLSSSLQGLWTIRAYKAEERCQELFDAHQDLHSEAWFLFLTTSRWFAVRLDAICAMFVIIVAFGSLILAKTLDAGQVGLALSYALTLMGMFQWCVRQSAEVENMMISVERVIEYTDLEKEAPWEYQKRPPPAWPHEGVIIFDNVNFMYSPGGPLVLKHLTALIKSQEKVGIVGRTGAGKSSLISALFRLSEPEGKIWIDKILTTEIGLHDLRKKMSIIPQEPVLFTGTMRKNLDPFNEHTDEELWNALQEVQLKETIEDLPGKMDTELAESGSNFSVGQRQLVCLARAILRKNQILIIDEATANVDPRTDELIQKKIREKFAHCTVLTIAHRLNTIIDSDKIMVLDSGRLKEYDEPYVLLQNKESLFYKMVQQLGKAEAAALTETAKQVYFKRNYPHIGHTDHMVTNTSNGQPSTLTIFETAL

[2] = target: T2, ATP-binding cassette sub-family C member 3 (Homo sapiens, UniProt O15438); assay: Inhibition of recombinant human ABCC3 expressed in baculovirus infected insect Sf21 cell plasma membrane vesicles assessed as inhibition of transporter-mediated [3H]-estradiol-17beta-glucuronide uptake by liquid scintillation counting analysis; assay type: ADME
T2 sequence (O15438 whole entry): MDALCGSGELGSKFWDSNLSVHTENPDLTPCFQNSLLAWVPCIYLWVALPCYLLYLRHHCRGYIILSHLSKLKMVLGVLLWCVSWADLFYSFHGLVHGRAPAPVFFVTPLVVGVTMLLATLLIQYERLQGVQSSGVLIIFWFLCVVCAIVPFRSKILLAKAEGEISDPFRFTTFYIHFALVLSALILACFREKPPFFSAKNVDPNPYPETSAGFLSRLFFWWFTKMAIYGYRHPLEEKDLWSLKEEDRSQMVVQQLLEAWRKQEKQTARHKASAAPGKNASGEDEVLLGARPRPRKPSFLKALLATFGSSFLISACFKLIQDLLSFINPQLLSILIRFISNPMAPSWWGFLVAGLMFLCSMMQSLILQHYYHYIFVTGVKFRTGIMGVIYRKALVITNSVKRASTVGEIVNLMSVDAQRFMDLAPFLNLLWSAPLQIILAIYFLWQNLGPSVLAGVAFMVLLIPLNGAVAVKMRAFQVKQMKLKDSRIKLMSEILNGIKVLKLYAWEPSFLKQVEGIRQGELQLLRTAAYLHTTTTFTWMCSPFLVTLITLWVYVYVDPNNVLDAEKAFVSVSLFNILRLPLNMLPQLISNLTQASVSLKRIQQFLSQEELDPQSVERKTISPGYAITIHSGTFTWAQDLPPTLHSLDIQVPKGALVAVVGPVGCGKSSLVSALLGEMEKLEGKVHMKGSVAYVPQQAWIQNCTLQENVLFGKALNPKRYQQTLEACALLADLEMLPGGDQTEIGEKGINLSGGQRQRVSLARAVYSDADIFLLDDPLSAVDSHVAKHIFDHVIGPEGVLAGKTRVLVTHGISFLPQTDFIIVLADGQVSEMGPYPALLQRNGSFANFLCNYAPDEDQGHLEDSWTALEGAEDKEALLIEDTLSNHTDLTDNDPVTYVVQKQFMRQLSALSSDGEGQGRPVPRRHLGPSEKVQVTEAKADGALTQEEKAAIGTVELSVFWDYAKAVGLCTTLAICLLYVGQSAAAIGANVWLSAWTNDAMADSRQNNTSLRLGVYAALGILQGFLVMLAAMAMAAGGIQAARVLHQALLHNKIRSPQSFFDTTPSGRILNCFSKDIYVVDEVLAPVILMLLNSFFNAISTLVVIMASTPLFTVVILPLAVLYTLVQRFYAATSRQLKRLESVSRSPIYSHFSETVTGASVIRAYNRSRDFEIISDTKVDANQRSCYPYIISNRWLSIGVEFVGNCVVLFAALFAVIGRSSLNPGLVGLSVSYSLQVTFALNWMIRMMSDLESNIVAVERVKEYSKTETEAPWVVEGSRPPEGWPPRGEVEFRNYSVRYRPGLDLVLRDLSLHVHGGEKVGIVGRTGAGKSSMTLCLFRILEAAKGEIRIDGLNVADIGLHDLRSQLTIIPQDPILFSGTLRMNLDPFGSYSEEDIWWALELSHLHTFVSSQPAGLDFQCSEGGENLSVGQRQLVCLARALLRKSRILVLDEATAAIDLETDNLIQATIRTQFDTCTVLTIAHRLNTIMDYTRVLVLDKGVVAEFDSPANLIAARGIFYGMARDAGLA

[3] = target: ATP-binding cassette sub-family C member 2 (Homo sapiens, UniProt Q92887); assay: Inhibition of recombinant human ABCC2 expressed in insect Sf21 cell plasma membrane vesicles assessed as inhibition of transporter-mediated [3H]-estradiol-17beta-glucuronide uptake by liquid scintillation counting analysis; assay type: ADME, cell membranes
ATP-binding cassette sub-family C member 2, sequence (Q92887 whole entry): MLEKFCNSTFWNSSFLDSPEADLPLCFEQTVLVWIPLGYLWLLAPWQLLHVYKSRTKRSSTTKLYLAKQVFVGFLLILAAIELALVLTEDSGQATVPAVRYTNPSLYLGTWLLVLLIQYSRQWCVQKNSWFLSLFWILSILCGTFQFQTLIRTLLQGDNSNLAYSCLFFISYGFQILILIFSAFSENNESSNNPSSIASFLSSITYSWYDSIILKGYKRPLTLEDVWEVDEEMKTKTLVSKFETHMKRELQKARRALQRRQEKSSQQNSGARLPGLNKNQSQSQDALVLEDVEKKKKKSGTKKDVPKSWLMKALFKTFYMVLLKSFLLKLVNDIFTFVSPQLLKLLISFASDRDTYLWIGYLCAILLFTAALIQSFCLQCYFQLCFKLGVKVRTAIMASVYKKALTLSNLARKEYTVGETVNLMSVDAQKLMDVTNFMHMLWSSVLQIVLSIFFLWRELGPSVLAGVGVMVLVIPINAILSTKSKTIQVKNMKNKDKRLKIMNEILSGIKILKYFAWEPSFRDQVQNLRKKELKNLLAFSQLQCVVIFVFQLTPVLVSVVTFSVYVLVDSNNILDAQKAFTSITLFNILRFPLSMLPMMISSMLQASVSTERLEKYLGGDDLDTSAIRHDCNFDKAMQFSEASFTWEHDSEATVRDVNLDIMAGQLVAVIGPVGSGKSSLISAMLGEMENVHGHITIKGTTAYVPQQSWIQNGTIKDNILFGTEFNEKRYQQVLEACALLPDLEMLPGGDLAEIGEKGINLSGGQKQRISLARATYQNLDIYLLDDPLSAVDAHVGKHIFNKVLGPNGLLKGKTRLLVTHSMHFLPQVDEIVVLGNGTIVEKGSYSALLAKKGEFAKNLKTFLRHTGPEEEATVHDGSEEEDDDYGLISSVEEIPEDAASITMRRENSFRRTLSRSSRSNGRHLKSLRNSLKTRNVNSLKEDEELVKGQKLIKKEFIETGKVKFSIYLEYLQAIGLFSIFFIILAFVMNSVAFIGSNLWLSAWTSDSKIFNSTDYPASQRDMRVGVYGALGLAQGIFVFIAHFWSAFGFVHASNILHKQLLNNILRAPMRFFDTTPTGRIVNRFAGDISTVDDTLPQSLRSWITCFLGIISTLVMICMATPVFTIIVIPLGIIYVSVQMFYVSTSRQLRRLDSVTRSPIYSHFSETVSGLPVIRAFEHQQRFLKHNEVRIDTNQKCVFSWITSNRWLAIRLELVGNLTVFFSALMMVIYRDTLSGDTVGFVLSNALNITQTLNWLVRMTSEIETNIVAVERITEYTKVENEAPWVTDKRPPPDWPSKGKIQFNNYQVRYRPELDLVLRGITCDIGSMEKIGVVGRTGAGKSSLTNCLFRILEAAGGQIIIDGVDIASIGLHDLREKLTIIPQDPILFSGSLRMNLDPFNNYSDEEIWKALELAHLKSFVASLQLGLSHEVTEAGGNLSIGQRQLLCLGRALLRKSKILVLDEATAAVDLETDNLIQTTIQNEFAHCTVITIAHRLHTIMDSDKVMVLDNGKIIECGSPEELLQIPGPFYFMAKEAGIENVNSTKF

Liver [4] = assay: Drug level in wild type mouse liver at 5 uM by liquid scintillation counting analysis; assay type: ADME, tissue-based; conditions: in vivo
Jejunum [5] = assay: Drug transport across apical to basolateral side in Abcc4-deficient mouse jejunal tissue explants at 50 uM by ussing chamber analysis; assay type: ADME
Jejunum [6] = assay: Drug transport across apical to basolateral side in Abcc3/Abcc4-deficient mouse jejunal tissue explants at 5 uM by ussing chamber analysis relative to wild type mouse; assay type: ADME
[7] = Drug excretion in Abcc3/Abcc4-deficient mouse urine at 5 uM by liquid scintillation counting analysis; assay type: ADME, tissue-based; conditions: in vivo
[8] = Drug excretion in Abcc3-deficient mouse urine at 5 uM by liquid scintillation counting analysis; assay type: ADME, tissue-based; conditions: in vivo
[9] = Drug excretion in Abcc4-deficient mouse urine at 5 uM by liquid scintillation counting analysis; assay type: ADME, tissue-based; conditions: in vivo
Kidney [10] = assay: Drug level in wild type mouse kidney at 5 uM by liquid scintillation counting analysis; assay type: ADME, tissue-based; conditions: in vivo
Jejunum [11] = assay: Drug transport across ligated jejunum in Abcc3-deficient mouse assessed as drug level in portal blood at 5 uM by liquid scintillation counting analysis; assay type: ADME, tissue-based
[12] = target: T1, ATP-binding cassette sub-family C member 4; assay: Activity of recombinant human ABCC4 expressed in baculovirus infected insect Sf21 cell plasma membrane vesicles assessed as transporter-mediated drug uptake at 10 uM by liquid scintillation counting analysis in presence of ATP; assay type: ADME; conditions: sf21, 10 µM, TDE = time-dependent effect
Intestine [13] = assay: Drug level in Abcc4-deficient mouse intestine at 5 uM by liquid scintillation counting analysis; assay type: ADME, tissue-based; conditions: in vivo
Jejunum [14] = assay: Drug transport across ligated jejunum in wild type mouse assessed as drug level in portal blood at 5 uM by liquid scintillation counting analysis; assay type: ADME, tissue-based; conditions: TDE = time-dependent effect
[15] = target: Multidrug resistance-associated protein 1 (Homo sapiens, UniProt P33527); assay: Activity of recombinant human ABCC1 expressed in baculovirus infected insect Sf21 cell plasma membrane vesicles assessed as transporter-mediated drug uptake at 10 uM by liquid scintillation counting analysis in presence of ATP; assay type: ADME; conditions: sf21, 10 µM, TDE = time-dependent effect
Multidrug resistance-associated protein 1, sequence (P33527 whole entry): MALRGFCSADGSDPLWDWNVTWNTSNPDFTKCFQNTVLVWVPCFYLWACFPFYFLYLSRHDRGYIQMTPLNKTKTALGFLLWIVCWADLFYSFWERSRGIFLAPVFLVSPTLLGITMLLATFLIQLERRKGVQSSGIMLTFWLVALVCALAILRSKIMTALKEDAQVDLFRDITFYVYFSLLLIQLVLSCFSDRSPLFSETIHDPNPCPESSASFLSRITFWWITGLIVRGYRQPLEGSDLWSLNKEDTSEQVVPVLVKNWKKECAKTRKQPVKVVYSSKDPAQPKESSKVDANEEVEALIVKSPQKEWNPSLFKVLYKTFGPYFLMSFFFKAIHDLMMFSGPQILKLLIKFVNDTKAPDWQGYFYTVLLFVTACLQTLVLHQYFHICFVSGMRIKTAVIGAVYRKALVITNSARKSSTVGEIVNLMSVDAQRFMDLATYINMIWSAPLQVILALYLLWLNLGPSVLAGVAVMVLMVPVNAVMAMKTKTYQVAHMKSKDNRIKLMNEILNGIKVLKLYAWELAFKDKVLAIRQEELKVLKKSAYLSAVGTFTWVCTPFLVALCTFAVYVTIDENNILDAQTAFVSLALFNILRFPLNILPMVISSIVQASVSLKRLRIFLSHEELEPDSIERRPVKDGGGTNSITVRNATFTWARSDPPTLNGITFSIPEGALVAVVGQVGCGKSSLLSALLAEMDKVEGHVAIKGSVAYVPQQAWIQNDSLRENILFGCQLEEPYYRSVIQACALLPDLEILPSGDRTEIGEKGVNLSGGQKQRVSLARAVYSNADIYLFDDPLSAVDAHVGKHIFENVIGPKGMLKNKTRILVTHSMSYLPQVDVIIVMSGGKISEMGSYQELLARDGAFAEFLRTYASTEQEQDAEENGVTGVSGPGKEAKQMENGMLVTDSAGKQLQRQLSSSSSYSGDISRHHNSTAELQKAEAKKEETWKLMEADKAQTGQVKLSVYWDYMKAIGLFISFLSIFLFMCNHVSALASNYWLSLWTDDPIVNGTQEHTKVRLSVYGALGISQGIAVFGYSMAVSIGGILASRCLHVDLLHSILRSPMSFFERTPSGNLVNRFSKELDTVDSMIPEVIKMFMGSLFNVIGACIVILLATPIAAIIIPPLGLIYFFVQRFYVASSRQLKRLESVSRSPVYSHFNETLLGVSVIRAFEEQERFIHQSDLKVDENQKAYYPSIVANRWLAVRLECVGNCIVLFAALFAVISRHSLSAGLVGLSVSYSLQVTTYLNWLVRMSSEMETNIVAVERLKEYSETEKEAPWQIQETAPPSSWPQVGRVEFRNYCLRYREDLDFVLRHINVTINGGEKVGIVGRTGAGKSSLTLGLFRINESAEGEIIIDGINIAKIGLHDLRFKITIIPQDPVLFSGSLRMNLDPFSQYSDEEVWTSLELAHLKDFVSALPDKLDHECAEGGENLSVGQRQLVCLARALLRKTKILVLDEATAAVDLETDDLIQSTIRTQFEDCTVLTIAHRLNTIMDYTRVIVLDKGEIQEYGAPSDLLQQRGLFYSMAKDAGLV

Jejunum [16] = assay: Drug transport across ligated jejunum in wild type mouse assessed as drug level in peripheral blood at 5 uM by liquid scintillation counting analysis; assay type: ADME, tissue-based; conditions: other
Intestine [17] = assay: Drug level in wild type mouse intestine at 5 uM by liquid scintillation counting analysis; assay type: ADME, tissue-based; conditions: in vivo
[18] = Drug excretion in wild type mouse urine at 5 uM by liquid scintillation counting analysis; assay type: ADME, tissue-based; conditions: in vivo
Liver [19] = assay: Drug level in Abcc4-deficient mouse liver at 5 uM by liquid scintillation counting analysis; assay type: ADME, tissue-based; conditions: in vivo
Kidney [20] = assay: Drug level in Abcc4-deficient mouse kidney at 5 uM by liquid scintillation counting analysis; assay type: ADME, tissue-based; conditions: in vivo
[21] = Drug uptake in bile of Abcc3/Abcc4-deficient mouse at 5 uM by liquid scintillation counting analysis; assay type: ADME, tissue-based; conditions: in vivo
[22] = target: T2, ATP-binding cassette sub-family C member 3; assay: Activity of recombinant human ABCC3 expressed in baculovirus infected insect Sf21 cell plasma membrane vesicles assessed as transporter-mediated drug uptake at 10 uM by liquid scintillation counting analysis in presence of ATP; assay type: ADME; conditions: sf21, 10 µM, TDE = time-dependent effect
Intestine [23] = assay: Drug level in Abcc3/Abcc4-deficient mouse intestine at 5 uM by liquid scintillation counting analysis; assay type: ADME, tissue-based; conditions: in vivo
Intestine [24] = assay: Drug level in Abcc3-deficient mouse intestine at 5 uM by liquid scintillation counting analysis; assay type: ADME, tissue-based; conditions: in vivo
Jejunum [25] = assay: Drug transport across ligated jejunum in Abcc3/Abcc4-deficient mouse assessed as drug level in portal blood at 5 uM by liquid scintillation counting analysis; assay type: ADME, tissue-based
[26] = Ratio of recombinant human ABCC4-mediated drug uptake in insect Sf21 cell plasma membrane vesicles to recombinant human ABCC3-mediated drug uptake in insect Sf21 cell plasma membrane vesicles; assay type: ADME, cell membranes
Liver [27] = assay: Drug level in Abcc3-deficient mouse liver at 5 uM by liquid scintillation counting analysis; assay type: ADME, tissue-based; conditions: in vivo
[28] = Ratio of recombinant human ABCC4-mediated drug uptake in insect Sf21 cell plasma membrane vesicles to recombinant human ABCC2-mediated drug uptake in insect Sf21 cell plasma membrane vesicles; assay type: ADME, cell membranes
Kidney [29] = assay: Drug level in Abcc3-deficient mouse kidney at 5 uM by liquid scintillation counting analysis; assay type: ADME, tissue-based; conditions: in vivo
Liver [30] = assay: Drug level in Abcc3/Abcc4-deficient mouse liver at 5 uM by liquid scintillation counting analysis; assay type: ADME, tissue-based; conditions: in vivo
Jejunum [31] = assay: Drug transport across apical to basolateral side in Abcc4-deficient mouse jejunal tissue explants at 5 uM by ussing chamber analysis relative to wild type mouse; assay type: ADME
Kidney [32] = assay: Drug level in Abcc3/Abcc4-deficient mouse kidney at 5 uM by liquid scintillation counting analysis; assay type: ADME, tissue-based; conditions: in vivo
Jejunum [33] = assay: Drug transport across ligated jejunum in Abcc4-deficient mouse assessed as drug level in portal blood at 5 uM by liquid scintillation counting analysis; assay type: ADME, tissue-based
Jejunum [34] = assay: Drug transport across ligated jejunum in Abcc3/Abcc4-deficient mouse assessed as drug level in peripheral blood at 5 uM by liquid scintillation counting analysis; assay type: ADME, tissue-based; conditions: other
Jejunum [35] = assay: Drug transport across apical to basolateral side in Abcc3/Abcc4-deficient mouse jejunal tissue explants at 50 uM by ussing chamber analysis; assay type: ADME

CCN1CCN(C(=O)N[C@@H](C(=O)N[C@@H]2C(=O)N3C(C(=O)O)=C(CSc4nnnn4C)CS[C@H]23)c2ccc(O)cc2)C(=O)C1=O [CEFOPERAZONE]
Active: inhibition (INH) [1] | inhibition (INH) [2] | inhibition (INH) [3]

CO[C@@]1(NC(=O)Cc2cccs2)C(=O)N2C(C(=O)O)=C(COC(N)=O)CS[C@@H]21 [CEFOXITIN]
Active: inhibition (INH) [1] | inhibition (INH) [2] | inhibition (INH) [3]

CO/N=C(\C(=O)N[C@@H]1C(=O)N2C(C(=O)O)=C(COC(N)=O)CS[C@H]12)c1ccco1 [CEFUROXIME]
Active: inhibition (INH) [1] | inhibition (INH) [2] | inhibition (INH) [3]

Cn1nnnc1SCC1=C(C(=O)O)N2C(=O)[C@@H](NC(=O)[C@H](O)c3ccccc3)[C@H]2SC1 [CEFAMANDOLE]
Active: inhibition (INH) [1] | inhibition (INH) [2] | inhibition (INH) [3]

CO/N=C(\C(=O)N[C@@H]1C(=O)N2C(C(=O)O)=C(CSc3nc(=O)c(=O)[nH]n3C)CS[C@H]12)c1csc(N)n1 [CEFTRIAXONE]
Active: inhibition (INH) [1] | inhibition (INH) [2] | inhibition (INH) [3]

CO[C@@]1(NC(=O)CSCC#N)C(=O)N2C(C(=O)O)=C(CSc3nnnn3C)CS[C@@H]21 [CEFMETAZOLE]
Active: inhibition (INH) [1] | inhibition (INH) [2] | inhibition (INH) [3]

CC1=C(C(=O)O)N2C(=O)[C@@H](NC(=O)[C@H](N)c3ccc(O)cc3)[C@H]2SC1 [CEFADROXIL]
Not Active: Drug transport (Jejunum [25]) | Drug transport (Jejunum [34])
< 0.4%: Drug uptake [21]
3: Ratio [28]
metabolite_detected: Drug excretion [7] | Drug excretion [8] | Drug excretion [9] | Drug excretion [18]
tde: Activity [12] | Drug transport (Jejunum [14]) | Activity [15] | Activity [22]
6: Ratio [26]
50%: Drug transport (Jejunum [6]) | Drug transport (Jejunum [31])
Active: Drug uptake (Liver [4]) | Drug transport (Jejunum [5]) | Drug uptake (Kidney [10]) | Drug transport (Jejunum [11]) | Drug uptake (Intestine [13]) | Drug transport (Jejunum [16]) | Drug uptake (Intestine [17]) | Drug uptake (Liver [19]) | Drug uptake (Kidney [20]) | Drug uptake (Intestine [23]) | Drug uptake (Intestine [24]) | Drug uptake (Liver [27]) | Drug uptake (Kidney [29]) | Drug uptake (Liver [30]) | Drug uptake (Kidney [32]) | Drug transport (Jejunum [33]) | Drug transport (Jejunum [35])

N[C@@H](C(=O)N[C@@H]1C(=O)N2C(C(=O)O)=C(Cl)CS[C@H]12)c1ccccc1 [CEFACLOR ANHYDROUS]
Active: inhibition (INH) [1] | inhibition (INH) [2] | inhibition (INH) [3]

CC1=C(C(=O)O)N2C(=O)[C@@H](NC(=O)[C@H](N)C3=CCC=CC3)[C@H]2SC1 [CEPHRADINE]
Active: inhibition (INH) [1] | inhibition (INH) [2] | inhibition (INH) [3]

CC1=C(C(=O)O)N2C(=O)[C@@H](NC(=O)[C@H](N)c3ccccc3)[C@H]2SC1 [CEPHALEXIN ANHYDROUS]
Active: inhibition (INH) [1] | inhibition (INH) [2] | inhibition (INH) [3]
